ChEMBL document CHEMBL5523718, “Design, synthesis, molecular modeling, in vitro and in vivo biological evaluation of potent anthranilamide derivatives as dual P-glycoprotein and CYP3A4 inhibitors” (Eur J Med Chem, 2024)
pEC50, pIC50: −log10 of the molar value. Values after ≈ are worked out from the molar mass of the structure shown. Values joined by “and” are separate entries in the source; they are usually repeats but may differ in a detail not shown here. Equal values may be shown once.

How the values were obtained:
[1] = molecular target: T1, Cytochrome P450 3A4 (Homo sapiens, UniProt P08684); assay: Inhibition of CYP3A4 in human liver using luciferin-IPA as substrate microsome preincubated with compound for 10 mins followed by NADPH addition and measured after 5 mins; format: ADME, microsomes
T1 sequence (P08684 whole entry): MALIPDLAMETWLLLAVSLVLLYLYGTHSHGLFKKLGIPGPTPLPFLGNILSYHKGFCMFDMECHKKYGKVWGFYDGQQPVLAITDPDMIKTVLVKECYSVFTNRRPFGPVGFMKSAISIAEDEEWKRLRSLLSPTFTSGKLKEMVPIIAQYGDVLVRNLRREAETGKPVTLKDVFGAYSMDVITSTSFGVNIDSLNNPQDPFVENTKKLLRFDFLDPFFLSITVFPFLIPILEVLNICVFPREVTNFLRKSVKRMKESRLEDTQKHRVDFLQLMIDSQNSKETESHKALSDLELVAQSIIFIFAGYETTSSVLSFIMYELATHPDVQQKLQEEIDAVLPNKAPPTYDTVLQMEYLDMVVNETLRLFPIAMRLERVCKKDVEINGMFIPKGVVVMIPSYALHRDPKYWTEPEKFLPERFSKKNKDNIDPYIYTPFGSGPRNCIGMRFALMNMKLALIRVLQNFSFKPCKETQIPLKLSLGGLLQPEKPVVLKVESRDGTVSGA

[2] = molecular target: T1, Cytochrome P450 3A4; assay: Inhibition of CYP3A4 in human Hepatocyte using Luciferin-IPA as substrate; format: ADME, cell-based
[3] = tested on: MES-SA/Dx5; assay: Cytotoxicity against human MES-SA/Dx5 cells at 1.28 uM incubated for 3 days by MTT assay relative to control; format: functional; details: time 3 day
[4] = molecular target: ATP-dependent translocase ABCB1 (Homo sapiens, UniProt P08183); assay: Inhibition of P-gp in human MES-SA/Dx5 cells; format: cell-based
ATP-dependent translocase ABCB1, sequence (P08183 whole entry): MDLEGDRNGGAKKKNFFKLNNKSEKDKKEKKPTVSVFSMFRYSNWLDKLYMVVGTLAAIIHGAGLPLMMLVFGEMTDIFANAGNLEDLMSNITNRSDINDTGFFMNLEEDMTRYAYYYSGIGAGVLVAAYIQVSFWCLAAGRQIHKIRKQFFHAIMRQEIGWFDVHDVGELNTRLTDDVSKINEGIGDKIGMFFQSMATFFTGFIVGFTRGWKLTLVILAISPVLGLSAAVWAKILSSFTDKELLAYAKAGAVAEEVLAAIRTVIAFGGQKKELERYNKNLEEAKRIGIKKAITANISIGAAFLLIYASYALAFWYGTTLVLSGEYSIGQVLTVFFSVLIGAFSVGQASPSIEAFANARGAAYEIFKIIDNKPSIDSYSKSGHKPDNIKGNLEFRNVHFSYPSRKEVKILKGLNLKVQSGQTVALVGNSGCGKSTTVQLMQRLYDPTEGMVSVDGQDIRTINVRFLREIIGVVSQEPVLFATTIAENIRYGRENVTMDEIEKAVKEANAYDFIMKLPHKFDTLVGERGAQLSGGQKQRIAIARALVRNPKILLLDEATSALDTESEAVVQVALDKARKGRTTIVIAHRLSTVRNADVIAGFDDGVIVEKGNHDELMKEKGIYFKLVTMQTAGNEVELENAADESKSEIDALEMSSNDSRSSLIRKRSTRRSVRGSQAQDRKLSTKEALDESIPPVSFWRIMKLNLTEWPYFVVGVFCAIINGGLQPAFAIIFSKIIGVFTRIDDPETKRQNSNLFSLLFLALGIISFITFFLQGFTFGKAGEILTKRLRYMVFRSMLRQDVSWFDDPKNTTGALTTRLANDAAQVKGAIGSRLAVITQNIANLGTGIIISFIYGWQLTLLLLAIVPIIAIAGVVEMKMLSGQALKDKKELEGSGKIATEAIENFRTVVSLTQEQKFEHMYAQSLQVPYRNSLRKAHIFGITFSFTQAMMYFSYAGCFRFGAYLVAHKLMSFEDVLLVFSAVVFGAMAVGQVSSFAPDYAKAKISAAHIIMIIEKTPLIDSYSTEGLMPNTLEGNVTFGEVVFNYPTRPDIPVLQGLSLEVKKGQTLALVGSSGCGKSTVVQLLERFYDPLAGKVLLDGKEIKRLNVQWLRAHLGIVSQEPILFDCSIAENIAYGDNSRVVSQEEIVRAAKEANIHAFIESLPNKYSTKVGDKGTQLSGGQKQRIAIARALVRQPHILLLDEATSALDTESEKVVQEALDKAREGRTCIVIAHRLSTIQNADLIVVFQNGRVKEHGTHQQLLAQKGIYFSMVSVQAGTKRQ

[5] = Apparent permeability of compound across apical to basolateral side in human Caco-2 cells; format: ADME, cell-based
[6] = Equilibrium solubility of compound in PBS at pH 7.4; format: physicochemical
[7] = Apparent permeability across apical to basolateral side in human Caco-2 cells assessed as drug recovery; format: ADME, cell-based; details: read-out: Drug recovery
[8] = Apparent permeability of compound across basolateral to apical side in human Caco-2 cells; format: ADME, cell-based
[9] = Apparent permeability across basolateral to apical side in human Caco-2 cells assessed as drug recovery; format: ADME, cell-based; details: read-out: Drug recovery
[10] = Efflux ratio of apparent permeability across basolateral to apical side over apical to basolateral side in human Caco-2 cells; format: ADME, cell-based

Row | SMILES | pIC50 [1] | pIC50 [2] | Activity [3] | pEC50 [4] | Papp A→B [5] | solubility ([6]; buffer) | recovery [7] | Papp B→A [8] | recovery [9] | efflux ratio [10] | solubility thermodynamic ([6]; PBS)
1 | COc1cc(NC(=O)c2cc(=O)c3ccccc3o2)c(C(=O)Nc2ccc(C3CCN(Cc4cccc(-c5ccncc5)c4)CC3)cc2)cc1OC | 6.82 and 6.67 | 5.90 and 5.94 | 1% | 6.78 and 6.67 |  |  |  |  |  |  | 
2 | COc1ccc(CN2CCN(c3ccc(NC(=O)c4cc(OC)c(OC)cc4NC(=O)c4cnc5ccccc5c4)cc3)CC2)cc1OC | < 5.05 |  | 1% | 7.54 |  |  |  |  |  |  | 
3 | O=C(Nc1ccccc1C(=O)Nc1ccc(N2CCN(Cc3cccc(-c4cccnc4)c3)CC2)cc1)c1cc(=O)c2ccccc2o1 | 6.40 | 5.73 | 2% | 6.29 |  |  |  |  |  |  | 
4 | COc1cc(NC(=O)c2cc(=O)c3ccccc3o2)c(C(=O)Nc2ccc(N3CCN(Cc4cccc(-n5ccnc5)c4)CC3)cc2)cc1OC | 6.79 | 5.62 | 0% | 7.41 |  |  |  |  |  |  | 
5 | COc1ccc(CN2CCN(c3ccc(NC(=O)c4cc(OC)c(OC)cc4NC(=O)c4cc(=O)c5ccccc5o4)cc3)CC2)cc1OC | < 5.05 |  | 5% | 7.68 |  |  |  |  |  |  | 
6 | COc1cc(NC(=O)c2cnc3ccccc3c2)c(C(=O)Nc2ccc(C3CCN(Cc4cccc(-c5ccncc5)c4)CC3)cc2)cc1OC | 5.95 | 5.49 | 3% | 6.73 |  |  |  |  |  |  | 
7 | COc1cc(NC(=O)c2cc(=O)c3ccccc3o2)c(C(=O)Nc2ccc(N3CCN(Cc4ccc5c(c4)OCO5)CC3)cc2)cc1OC | 5.79 | 5.33 | 4% | 7.51 |  |  |  |  |  |  | 
8 | COc1cc(NC(=O)c2cnc3ccccc3c2)c(C(=O)Nc2ccc(C3CCN(Cc4cccc(-n5ccnc5)c4)CC3)cc2)cc1OC | 6.48 | 5.90 | 1% | 7.35 | 0.55 ×10⁻⁶ cm/s | Not Determined(Insoluble) | 61% | 0.4 ×10⁻⁶ cm/s | 72% | 0.7 | 
9 | COc1cc(NC(=O)c2cnc3ccccc3c2)c(C(=O)Nc2ccc(N3CCN(Cc4cccc(-c5ccncc5)c4)CC3)cc2)cc1OC | 6.27 | 5.75 | 2% | 7.01 |  |  |  |  |  |  | 
10 | COc1cc(NC(=O)c2cnc3ccccc3c2)c(C(=O)Nc2ccc(N3CCN(Cc4cccc(-n5cncn5)c4)CC3)cc2)cc1OC | 6.61 | 6.26 | 1% | 6.45 |  |  |  |  |  |  | 
11 | COc1cc(NC(=O)c2cnc3ccccc3c2)c(C(=O)Nc2ccc(C3CCN(Cc4cccc(-c5cccnc5)c4)CC3)cc2)cc1OC | 6.61 | 6.01 | 0% | 6.97 |  |  |  |  |  |  | 
12 | COc1cc(NC(=O)c2cnc3ccccc3c2)c(C(=O)Nc2ccc(N3CCN(Cc4cccc(-n5ccnc5)c4)CC3)cc2)cc1OC | 6.57 | 5.72 | 0% | 7.48 | 0.17 ×10⁻⁶ cm/s |  | 69% | 0.27 ×10⁻⁶ cm/s | 74% | 1.6 | 0.092 µM (≈ 0.0614 µg/mL)
13 | COc1cc(NC(=O)c2cc(=O)c3ccccc3o2)c(C(=O)Nc2ccc(N3CCN(Cc4ccc5c(cnn5C)c4)CC3)cc2)cc1OC | 5.98 | 5.09 | 2% | 7.85 |  |  |  |  |  |  | 
14 | COc1cc(NC(=O)c2cc(=O)c3ccccc3o2)c(C(=O)Nc2ccc(C3CCN(Cc4ccc5c(c4)OCO5)CC3)cc2)cc1OC | 5.90 | 5.19 | 1% | 7.29 |  |  |  |  |  |  | 
15 | CC(=O)N1CCN(c2ccc(OCC3COC(Cn4ccnc4)(c4ccc(Cl)cc4Cl)O3)cc2)CC1 (configuration not stated) [KETOCONAZOLE] |  |  | 39% |  |  |  |  |  |  |  | 
